In patent US10857112B2, “Small molecule inhibitors of RNA binding motif (RBM) proteins for the treatment of acute cellular injury” (University of Pittsburgh—Of the Commonwealth System of …, priority 2012, dated 2020):

What was measured:
caspase-9 = assay: STS-induced caspase-9 activity in neurons; format: cell-based, rat; settings: 150 nM STS 24 hours; co-treatment 75 μM
caspase-3 = assay: Western blot of cleaved caspase-3 and caspase-3 substrates after STS; format: cell-based, rat; settings: 125 μM
Protocol: Caspase-3 inhibition was confirmed by biochemical analysis. Protein samples harvested from neurons incubated with 125 μM AQ2S and 500 nM STS for 6 hours were run on western blot. Consistent with caspase-3 inhibition, cleaved (i.e., activated) capase-3 was reduced in AQ2S-treated neurons (FIG. 8D). Finally, the inhibition of caspase-3 by AQ2S was confirmed biochemically via western blot analysis of substrate cleavage products. Poly ADP ribose polymerase is a classic caspase-3 substrate. The parent protein migrates at ˜116 KDa on SDS-PAGE. An 89-KDa product is produced upon cleavage by caspase-3. Cortical neurons were subjected to 250 nM STS for 6 hours.
Neurons used for Western blot analysis for grown in 6-well plates. Briefly, neurons were treated with experimental compounds for the indicated time/conditions. At the end of each experiment, neurons were washed in ice cold PBS and harvested in 65 μL RIPA buffer containing protease inhibitors, phosphatase inhibitors, and EDTA. Extracts were collected in 0.5 mL tubes and sonicated for 20-30 seconds. Cell extracts were then spun at 4° C./16,000 g/10 minutes and stored at −80° C. until use. Frozen extracts were thawed on ice and protein concentration measured using the BCA assay (PIERCE). […] of sample protein was loaded per well of a 7.5% SDS precast gel (Biorad), and run for 30 minutes to 1 hour at 200 V. Kaleidoscope protein standards (Biorad) were run parallel to neuron extracts. Proteins were then transferred to PDVF membranes (run at 100 V/4° C./1.5 hours). PDVF membranes were washed once in tris buffered saline (TBS) and blocked for 1 hour in tris buffered saline/tween-20 with 7.5% nonfat milk (TBS-T/milk). Blots were incubated overnight at 4° C. with primary antibodies in TBS-T/milk. Cell Signaling Technology: phospho-AKT473, AKT Total, phospho-ERK1/2, ERK Total, cleavage caspase-3. Santa Cruz Antibodies: NF-κB p50 subunit, NF-κB p65 subunit, and beta actin. Calbiochem: 4-HNE antibody. Blots were washed 3 times (5 minutes each) with TBS, and incubated with secondary antibodies for 2 hours. Invitrogen: goat anti-rabbit or goat anti-mouse. Blots were washed 3 times (5 minutes each) with TBS, and incubated for 1 minute in HRP detection solution (Amersham). Films were exposed to blots and developed (SRX-101A, Konica Minolta Medical & Graphic Inc.). Re-probed blots (e.g. beta actin, AKT total, ERK total) were stripped in western blot stripping buffer (Fischer Scientific) for 10 minutes, washed once with TBS, re-blocked in TBS-T/milk for 1 hour, and incubated overnight with new primary antibody. Films were scanned (EPSON GT 20,000), and densitometry performed using UN-SCAN-IT software (Silk Scientific).

[1] = system: extracellular regulated kinase (ERK); assay: Western blot of ERK activation; format: cell-based, rat; settings: 125 μM; 17 hours STS
Protocol: To determine the specificity of AQ2S mediated signaling changes, extracellular regulated kinase (ERK) was also examined. 17 hours STS abolished ERK activation.
Neurons used for Western blot analysis for grown in 6-well plates. Briefly, neurons were treated with experimental compounds for the indicated time/conditions. At the end of each experiment, neurons were washed in ice cold PBS and harvested in 65 μL RIPA buffer containing protease inhibitors, phosphatase inhibitors, and EDTA. Extracts were collected in 0.5 mL tubes and sonicated for 20-30 seconds. Cell extracts were then spun at 4° C./16,000 g/10 minutes and stored at −80° C. until use. Frozen extracts were thawed on ice and protein concentration measured using the BCA assay (PIERCE). […] of sample protein was loaded per well of a 7.5% SDS precast gel (Biorad), and run for 30 minutes to 1 hour at 200 V. Kaleidoscope protein standards (Biorad) were run parallel to neuron extracts. Proteins were then transferred to PDVF membranes (run at 100 V/4° C./1.5 hours). PDVF membranes were washed once in tris buffered saline (TBS) and blocked for 1 hour in tris buffered saline/tween-20 with 7.5% nonfat milk (TBS-T/milk). Blots were incubated overnight at 4° C. with primary antibodies in TBS-T/milk. Cell Signaling Technology: phospho-AKT473, AKT Total, phospho-ERK1/2, ERK Total, cleavage caspase-3. […]

[2] = system: primary rat cortical neurons; assay: Glutamate excitotoxic injury, neuron viability; format: cell-based; settings: 5 μM glutamate 5 minute; post-injury 125 μM; 24 hours
Protocol: Drugs (AQ2S and MK801) were dissolved in 100% DMSO (vehicle). Rat cortical neurons were isolated from E17 embryos, and seeded onto 96-well plates at a density of 1.5×10^5/well. At day-in-vitro 8 (D.I.V. 8) culture maintenance media was replaced with treatment media (Modified Eagles Buffered Solution) without or with 5 μM Glutamate. After a 5 minute injury in treatment solution, cells were returned to normal culture maintenance media conditions (Neurobasal/B27 supplement) with either: 1) DMSO, 2) 125 μM AQ2S or 3) MK801; MK801 is an NMDA receptor channel blocker and classic neuroprotectant in this injury paradigm. Neuron viability was measured 24 hours post-injury by incubation with CellTiter Blue reagent (PROMEGA) for 2 hours. CellTiter Blue is metabolized into a fluorescent reagent only in living cells. The level of fluorescence (expressed as relative fluorescent units; RFU) was measured on a plate reader (PROMEGA).
Primary rat cortical neurons were grown onto 96-well plates. Neurons were treated with or without 5 μM glutamate. Cells were returned to regular growth media with DMSO, 125 μM AQ2S, or MK801 and viability measured 24 hours later (expressed as relative fluorescent units; RFU). […] Injury (n=7), Glut+AQ2S (n=7) and Glut+MK-801 (n=6). White bar indicated absence of glutamate injury. […] Data were analyzed by ANOVA (p<0.0001); Fisher LSD post-hoc test. * indicates p<0.05. […]

[3] = system: primary rat cortical neurons; assay: Ischemia (OGD) injury, neuron viability; format: cell-based; settings: 1 hour OGD; 75 μM during and after injury; 24 hours
Protocol: AQ2S was dissolved in 100% DMSO (vehicle). Rat cortical neurons were isolated from E17 embryos, and seeded onto 96-well plates at a density of 7.5×10^4/well. At D.I.V. 10-11 culture maintenance media was replaced with treatment media (Modified Eagles Buffered Solution) without or with 25 μM Glucose. In addition, neurons were incubated with or without oxygen (induced by placement of cell plates in an anoxic chamber flushed with a gas mixture to remove oxygen). OGD injury was administered for 1 hour. […] Neuron viability was measured 24 hours post-injury by incubation with CellTiter Blue reagent (PROMEGA) for 3.5 hours. CellTiter Blue is metabolized into a fluorescent reagent only in living cells. The level of fluorescence (expressed as relative fluorescent units; RFU) was measured on a plate reader (PROMEGA).
Primary rat cortical neurons were grown onto 96-well plates. Neurons were injured by a 1 hour treatment with/without 25 μM glucose and with/without oxygen. DMSO or 75 μM AQ2S were added to OGD treatment media during the 1 h ischemic injury period. After 1 hour injury, cells were returned to regular growth media and normoxic culture conditions (i.e. 95% […]/5% CO2) with either DMSO or 75 μM AQ2S. Cell viability was measured 24 hours later and expressed as relative fluorescent units (RFU). […] Data were analyzed by ANOVA (p<0.0001); Fisher LSD post-hoc test. * indicates p<0.05. […]

[4] = system: C57BL6 mice, severe CCI brain injury; assay: Controlled cortical impact (TBI) injury, hippocampal volume; format: in vivo
Protocol: AQ2S was prepared in 2% DMSO in PBS (i.e. vehicle). C57BL6 mice were administered a severe CCI brain injury. Severe brain trauma was induced by a pneumatic impactor device that delivers a defined cortical injury (impact depth, 1.6 mm; impact velocity, 5 m/s). 15 minutes after injury animals were given a 5 μL intracerebroventricular injection with either vehicle (n=7) or 500 μM AQ2S (n=7). The 5 μL injection volume was delivered at a rate of 0.5 μL/minute. […] A second vehicle or AQ2S injection was administered 24 hours after injury. […] 3 days after injury animals were sacrificed, perfused with a fixative, brains sectioned, and stained with hematoxylin and eosin (H&E). Images were captured using a light microscope and camera.
Mice were given surgical/treatment protocols and hippocampal tissue analyzed 3 days later. […] (D) Left (injured) and right (non-injured) hippocampal volumes were quantified for each mouse; sham (n=5), vehicle CCI injury (n=7), and AQ2S CCI injury (n=7). FIG. 23D show left hippocampal volumes (expressed as % of uninjured right hippocampus).

RBM5 = biological target: T1, RBM5 (Homo sapiens, UniProt P52756); settings: cited from earlier work
T1 sequence (P52756 181-210 limits assumed): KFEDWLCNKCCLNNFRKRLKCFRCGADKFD

For `O=C1c2ccccc2C(=O)c2cc(S(=O)(=O)O)ccc21` [AQ2S, anthraquinone-2-sulfonic acid], the caspase-9 activity (caspase-9) was “significantly reduced baseline and injury activity levels”, the “89-KDa PARP cleavage product, western blot” value (caspase-3; 250 nM STS 6 hours) was “significantly reduced the formation of the 89-KDa species” and the “NF-κB p50 subunit protein levels” value (caspase-3; 250 nM STS 17 hours) was “No change”. The “NF-κB p65 subunit protein levels” value (caspase-3; 250 nM STS 17 hours) was “increased”, the “cleaved (activated) caspase-3, western blot” value (caspase-3; 500 nM STS 6 hours) was “reduced” and the ERK activation [1] was “did not prevent STS-mediated ERK inhibition”. For the same compound, the “viability after glutamate injury” value [2] was “significantly protects neurons from glutamate induced cell death”, the “viability after ischemic (OGD) injury” value [3] was “significantly increases viability” and the “left hippocampal volume (% of uninjured right hippocampus)” value ([4]; 5 μL 500 μM intracerebroventricular 15 minutes and 24 hours after CCI, 3 days) was “not significantly (N.S.) different from Sham animals”. The estimated final tissue AQ2S concentration ([4]; 5 μL of 500 μM icv, extrapolated from total CSF volume in mice (35 μL), unit of the source corrected) was roughly 71 µM, the “targeting of zinc-finger domain in RBM5” value (RBM5; Farina et al. 2011) was “selective and potent target of the zinc-finger domain in pro-apoptotic RBM5 and inhibits its function” and the IC50 (RBM5; read-out: IC50 of AQ2S to inhibit RBM5) was roughly 82 µM.
